Source: US11970731B2, “Enhancement of nucleic acid polymerization by aromatic compounds” (priority 2018, dated 2024)

Key:
[1] = molecular target: T1, C4760 DNA polymerase (a variant of DPO4) (Saccharolobus solfataricus, UniProt Q97W02, A155G/A42V/D156R/D292Y/D294N/E291S/E324K/E325K/E327K/E63R/E79L/G187P/G299W/I153V/I189F/I248T/I295S/K152A/K317Q/K321Q/K56Y/K78D/L293W/M76W/N188Y/P184Q/Q82W/Q83G/R300S/S297Y/S86E/T290K/T301W/V289W/V296Q); assay: Primer extension assays using the HIV2 100 mer template; assay type: biochemical, Sulfolobus solfataricus
T1 construct: made in house
T1 sequence (Q97W02 other isoform, or with tags, fused parts or gaps with the stated changes): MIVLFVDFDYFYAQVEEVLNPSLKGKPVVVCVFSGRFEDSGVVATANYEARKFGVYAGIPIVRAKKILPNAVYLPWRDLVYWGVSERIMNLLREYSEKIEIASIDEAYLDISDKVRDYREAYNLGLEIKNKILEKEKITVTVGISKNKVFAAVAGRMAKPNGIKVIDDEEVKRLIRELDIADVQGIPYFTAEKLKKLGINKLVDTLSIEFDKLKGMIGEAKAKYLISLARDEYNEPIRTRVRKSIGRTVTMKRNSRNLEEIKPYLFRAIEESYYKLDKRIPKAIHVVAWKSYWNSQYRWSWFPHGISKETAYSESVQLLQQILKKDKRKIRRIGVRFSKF
Description: PEM activity of compound 12 was tested in primer extension assays using the HIV2 100 mer template. Primer extension reactions included the following reagents: 50 mM TrisCl, 200 mM NH4OAc, 20% PEG8K, 5% NMS, 0.6 nmol PP-60.20, 0.6 mM MnCl2, 2.75 μg/μl Eco single-strand binding protein (SSB), 1 M urea, 50 pmol each XNTP, 1.1 pmol template, 1 pmol oligonucleotide primer, 1.2 μg/μl purified recombinant C4760 DNA polymerase (SEQ ID NO:2), and 0.5, 1, or 1.5 mM PEM. 10 μL primer extension reactions were run for 30 minutes at 23° C. and reaction products were analyzed by gel electrophoresis. […] Lanes 2-4 show primer extension products from reactions with a structurally related additive lacking robust PEM activity.
PEM activity of compounds 13 and 14 was tested in primer extension assays using the HIV2 100 mer template. Primer extension reactions included the following reagents: 50 mM TrisCl, 200 mM NH4OAc, 20% PEG8K, 5% NMS, 0.6 nmol PP-60.20, 0.6 mM MnCl2, 2.75 μg/μl Eco single-strand binding protein (SSB), 1 M urea, 50 pmol each XNTP, 1.1 pmol template, 1 pmol oligonucleotide primer, 1.2 μg/μl purified recombinant C4760 DNA polymerase (a variant of DPO4, see SEQ ID NO:2), and 0.5, 1, 1.52, or 2.5 mM PEM. 10 μL primer extension reactions were run for 30 minutes at 23° C. and reaction products were analyzed by gel electrophoresis. A representative gel showing primer extension products is presented in FIG. 11 (the position of the full length HIV2 100 mer is indicated by the arrow).
PEM activity of compounds 16, 17, and 18 and combinations thereof were tested in primer extension assays using the HIV2-derived 100mer template. Primer extension reactions included the following reagents: 50 mM TrisCl, 200 mM NH4OAc, 20% or 25% PEG8K, 5% NMS, 0.6 nmol PP-60.20, 0.6 mM MnCl2, 2 μg Kod single-strand binding protein (SSB), 1 M urea, 50 pmol each XNTP, 1 pmol template, 1 pmol oligonucleotide primer, 1.2 μg purified recombinant C4760 DNA polymerase (a variant of DPO4, see SEQ ID NO:2), and 0.5-2 mM PEM. 10 μL primer extension reactions were run for 30 minutes at 37° C. and reaction products were analyzed by gel electrophoresis. A representative gel showing primer extension products is presented in FIG. 13 (the position of a 100mer product is indicated by the arrow).

DNA polymerase = assay: Screen of PEMs for enhancement of XNTP polymerization (primer extension, gel electrophoresis); assay type: biochemical; conditions: for DNA polymerase-mediated primer extension with XNTPs (length of extension products): FIG. 4 gel, 45 mer template, without PEM additive up to only around 14 XNTPs
Description: A representative primer extension reaction may include the following reagents: 2 pmol primer, 2.2 pmol 45 mer oligonucleotide template, 50 pmol of each XNTP (XATP, XCTP, XGTP, and XTTP), 50 mM Tris HCl, pH 6.79, 200 mM NaCl, 20% PEG, 5% NMS, 0.5 nmol polyphosphate 60.19, 0.3 mM MnCl2, and 0.6 μg of purified recombinant DNA polymerase protein. Reactions may be run for 1 hr at 23° C. Reaction products (i.e., constrained Xpandomers) are treated to cleave the phosphoramidate bonds, thereby generating linearized Xpandomers. Reaction products may be analyzed using gel electrophoresis on 4-12% acrylamide gels to resolve and visualize Xpandomer products of different lengths. For the PEM screen described above, PEMs were typically tested in the micro to millimolar range.
Again, this PEM activity is specific for compound 2, as other unrelated aromatic compounds had no effect (lanes 2-7).

C4552 DNA polymerase = molecular target: T2, C4552 DNA polymerase (Saccharolobus solfataricus, UniProt Q97W02, A155G/A42V/D156R/D292Y/D294N/E291S/E324K/E325K/E327K/E79L/G187P/G299W/I153V/I189F/I248T/I295S/K152A/K317Q/K321Q/K56Y/K78D/L293W/M76W/N188Y/P184Q/Q82W/Q83G/R300S/S297Y/S86E/T290K/T301W/V289W/V296Q); assay: Primer extension assays using three 100mer templates derived from HIV1, 2 and 3 genomes; assay type: biochemical, Sulfolobus solfataricus; conditions: 0.5 mM PEM; HIV1, HIV2, HIV3 100mer templates; 30 minutes at 23° C.; FIG. 9
T2 construct: made in house
T2 sequence (Q97W02 other isoform, or with tags, fused parts or gaps with the stated changes): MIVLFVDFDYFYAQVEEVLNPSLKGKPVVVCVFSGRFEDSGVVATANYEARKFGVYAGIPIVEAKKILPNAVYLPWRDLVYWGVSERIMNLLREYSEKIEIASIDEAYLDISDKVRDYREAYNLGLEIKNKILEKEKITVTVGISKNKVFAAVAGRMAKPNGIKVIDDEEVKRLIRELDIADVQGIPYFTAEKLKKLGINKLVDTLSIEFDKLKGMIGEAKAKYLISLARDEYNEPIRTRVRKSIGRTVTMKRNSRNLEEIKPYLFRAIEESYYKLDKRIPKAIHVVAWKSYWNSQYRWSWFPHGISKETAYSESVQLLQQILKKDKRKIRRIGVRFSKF
Description: PEM activity of compounds 9-11 was tested in primer extension assays using three 100mer templates, derived from the HIV1, 2, and 3 genomes. Primer extension reactions included the following reagents: 75 mM TrisCl, pH 8.44, 175 mM NH4OAc, 20% PEG8K, 5% NMS, 0.8 nmol PP-60.20, 0.6 mM MnCl2, 2.3 μg Tth single-strand binding protein (SSB), 0.5 M or 1 M urea, 200 pmol each XNTP, 1.1 pmol template, 1 pmol oligonucleotide primer, 1.2 μg purified recombinant C4552 DNA polymerase, and 0.5 mM PEM. 10 μL primer extension reactions were run for 30 minutes at 23° C. and reaction products were analyzed by gel electrophoresis.

[2] = 2 mM compound 16, 0.5, 1, 2, and 3 mM compound 17, Kod SSB, 30 minutes at 37° C., FIG. 13, comparator compound 14 (lane 1)
[3] = 0.5, 1, 1.52, or 2.5 mM PEM, Eco SSB, 30 minutes at 23° C., FIG. 11, comparator compound 10 (lanes 1-4)

Q: Which “PEM activity: polymerization of XNTPs into Xpandomer copies of the 100 mer template” value (shortened to “PEM activity … of the 100 mer template”) [1, 2] does the source give for COC(=O)c1cc(-c2cn(-c3ccc(C(=O)O)c(O)c3)nn2)nc(-c2cn(-c3ccc(C(=O)O)c(O)c3)nn2)c1 [Compound 16, 4,4′-((4-(methoxycarbonyl)pyridine-2,6-diyl)bis(1H-1,2,3-triazole-4,1-diyl))bis(2-hydroxybenzoic acid)] here?
A: enable polymerization of XNTPs into lengthy Xpandomer copies of the 100 mer template in a manner comparable to that of compound 14

Q: O=C(O)c1ccc(-n2cc(-c3cncc(-c4cn(-c5ccc(C(=O)O)c(O)c5)nn4)c3)nn2)cc1O [Compound 2, 4,4′-(pyridine-3,5-diylbis(1H-1,2,3-triazole-4,1-diyl))bis(2-hydroxybenzoic acid)] was tested. Which “primer extension activity with XNTPs” value (DNA polymerase; FIG. 5 gel, compound at various concentrations (lanes 8-10), without PEM additive modest activity) did it give?
A: significantly enhances primer extension activity

Q: How did the “PEM activity … of the 100 mer template” value ([1]; 0.5, 1, or 1.5 mM PEM, Eco SSB, 30 minutes at 23° C., FIG. 10, comparable to compound 10 (lane 1)) turn out when N#Cc1cc(-c2cn(-c3ccc(O)c(C(=O)O)c3)nn2)nc(-c2cn(-c3ccc(O)c(C(=O)O)c3)nn2)c1 [Compound 12, 5,5′-((4-cyanopyridine-2,6-diyl)bis(1H-1,2,3-triazole-4,1-diyl))bis(2-hydroxybenzoic acid)] was run?
A: enables polymerization of XNTPs into full length Xpandomer copies of the 100 mer template

Q: For CCOC(=O)c1cc(-c2cn(-c3ccc(C(=O)O)c(O)c3)nn2)nc(-c2cn(-c3ccc(C(=O)O)c(O)c3)nn2)c1 [Compound 14, 4,4′-((4-(ethoxycarbonyl)pyridine-2,6-diyl)bis(1H-1,2,3-triazole-4,1-diyl))bis(2-hydroxybenzoic acid)], which “PEM activity … of the 100 mer template” value [1, 3] is on record?
A: enables polymerization of XNTPs into full length Xpandomer copies of the 100 mer template in a manner comparable to that of compound 10

Q: For COc1cc(-c2cn(-c3ccc(C(=O)O)c(O)c3)nn2)nc(-c2cn(-c3ccc(C(=O)O)c(O)c3)nn2)c1 [Compound 9, 4,4′-((4-methoxypyridine-2,6-diyl)bis(1H-1,2,3-triazole-4,1-diyl))bis(2-hydroxybenzoic acid)], which “PEM activity: polymerization of XNTPs into Xpandomer copies of 100 mer templates” value (C4552 DNA polymerase) is on record?
A: enable XNTP polymerization at least as efficiently as compound 1

Q: For O=C(O)c1ccc(-n2cc(-c3ccc4[nH]c5ccc(-c6cn(-c7ccc(C(=O)O)c(O)c7)nn6)cc5c4c3)nn2)cc1O [Compound 4, 4,4′-((9H-carbazole-3,6-diyl)bis(1H-1,2,3-triazole-4,1-diyl))bis(2-hydroxybenzoic acid)], which “DNA polymerase-mediated primer extension with XNTPs (length of extension products)” value (DNA polymerase) is on record?
A: enables the polymerase to synthesize considerably longer extension products

Q: How did the “DNA polymerase-mediated primer extension with XNTPs (length of extension products)” value (DNA polymerase) turn out when O=C(O)c1ccc(-n2cc(-c3cccc(-c4cn(-c5ccc(C(=O)O)c(O)c5)nn4)c3)nn2)cc1O [Compound 3, 4,4′-(1,3-phenylenebis(1H-1,2,3-triazole-4,1-diyl))bis(2-hydroxybenzoic acid)] was run?
A: enables the polymerase to synthesize considerably longer extension products

Q: CCNC(=O)c1cc(-c2cn(-c3ccc(C(=O)O)c(O)c3)nn2)nc(-c2cn(-c3ccc(C(=O)O)c(O)c3)nn2)c1 [Compound 17, 4,4′-((4-(ethylcarbamoyl)pyridine-2,6-diyl)bis(1H-1,2,3-triazole-4,1-diyl))bis(2-hydroxybenzoic acid)] was tested. Which “PEM activity … of the 100 mer template” value [1, 2] did it give?
A: enable polymerization of XNTPs into lengthy Xpandomer copies of the 100 mer template in a manner comparable to that of compound 14

Q: How did the “PEM activity … of the 100 mer template” value [1, 3] turn out when Cc1cc(-c2cn(-c3ccc(C(=O)O)c(O)c3)nn2)nc(-c2cn(-c3ccc(C(=O)O)c(O)c3)nn2)c1 [Compound 13, 4,4′-((4-methylpyridine-2,6-diyl)bis(1H-1,2,3-triazole-4,1-diyl))bis(2-hydroxybenzoic acid)] was run?
A: enables polymerization of XNTPs into full length Xpandomer copies of the 100 mer template in a manner comparable to that of compound 10

Q: For O=C(O)c1ccc(-n2cc(-c3cc([N+](=O)[O-])cc(-c4cn(-c5ccc(C(=O)O)c(O)c5)nn4)n3)nn2)cc1O [Compound 11, 4,4′-((4-nitropyridine-2,6-diyl)bis(1H-1,2,3-triazole-4,1-diyl))bis(2-hydroxybenzoic acid)], which “PEM activity: polymerization of XNTPs into Xpandomer copies of 100 mer templates” value (C4552 DNA polymerase) is on record?
A: enable XNTP polymerization at least as efficiently as compound 1
